“And” between values parts separate entries of the source, which are not always exact repeats. Identical values can stand only once.
System: oral mucositis induced in hamsters by acute radiation (40 Gy to left buccal cheek pouch)
Assay: ACT-03 (Example 2): acute radiation model of oral mucositis in hamsters, mucositis scoring
Format: in vivo, Syrian Golden Hamsters
Parameters: key to Mucositis score / Mucositis Scores: 0: Pouch completely healthy. No erythema or vasodilation.; 1: Light to severe erythema and vasodilation. No erosion of mucosa.; 2: Severe erythema and vasodilation. Erosion of superficial aspects of mucosa leaving denuded areas. Decreased stippling of mucosa.; 3: Formation of off-white ulcers in one or more places. Ulcers may have a yellow/gray due to pseudomembrane. Cumulative size of ulcers should equal about ¼ of the pouch. Severe erythema and vasodilation.; 4: Cumulative seize of ulcers should equal about ½ of the pouch. Loss of pliability. Severe erythema and vasodilation.; 5: Virtually all of pouch is ulcerated. Loss of pliability (pouch can only partially be extracted from mouth); peak mean mucositis score: scale not given here
Details: for Mucositis Scores: first study, single animal, blinded scorer; for Mucositis score: individual animal, 2 blinded scorers
From the text: The acute radiation model in hamsters, developed by the Principal Investigator, has proven to be an accurate, efficient and cost-effective technique to provide a preliminary evaluation of anti-mucositis compounds (9). The course of mucositis in this model is well defined and results in peak scores approximately 14-16 Days following radiation. The acute model has little systemic toxicity, resulting in few hamster deaths, thus permitting the use of smaller groups (N=7-8) for initial efficacy studies. It has also been used to study specific mechanistic elements in the pathogenesis of mucositis. Molecules that show efficacy in the acute radiation model may be further evaluated in the more complex models of fractionated radiation, chemotherapy, or concomitant therapy.
In this study, an acute radiation dose of 40 Gy on day 0 was administered locally to the cheek pouch. Clinically significant mucositis was observed on days 12 through 28.
Seventy-two male Syrian Golden Hamsters were divided randomly into 9 groups of 8 animals and given an acute radiation dose of 40 Gy directed to their left buccal cheek pouch. This was accomplished by anesthetizing the animals and everting the left buccal pouch, while protecting the rest of the animal with a lead shield. […] Mucositis was evaluated clinically starting on Day 6, and continued on alternate days until day 28.
The grade of mucositis was scored, beginning on day 6, and for every second day thereafter, through and including day 28 (for scoring scheme, see Table 6 and FIG. 8). The effect on mucositis of each drug treatment compared to ip vehicle-treated controls was assessed according to the following parameters:
The difference in the number of days hamsters in each group have ulcerative (score≧3) mucositis.
On each evaluation day, the number of animals with a blinded mucositis score of ≧3 in each drug treatment group was compared to the vehicle-treated control group. Differences were compared on a cumulative basis and statistical significance was determined by chi-square analysis. Efficacy, in this analysis, is defined as a significant reduction in the number of days that a group of animals had ulcerations (scores≧3) when compared to the control group.
For each evaluation day the scores of the control group were compared to those of the treated groups using non-parametric rank sum analysis. Treatment success was considered as a statistically significant lowering of scores in the treated group on 2 or more days from day 6 to day 28.
All seventy-two (72) male Syrian Golden Hamsters were given an acute radiation dose of 40 Gy directed to their left buccal cheek pouch. This was accomplished by anesthetizing the animals and everting the left buccal pouch, while protecting the rest of the animal with a lead shield. […] Mucositis was evaluated clinically starting on day 6, and continuing on alternate days until day 28. The study timeline is depicted in FIG. 7. Dose levels were determined based on the results of a previous acute toxicity study (data not published), and in the prior mucositis study of Example 1, shown in Table 5.
Mucositis was induced using a standardized acute radiation protocol. A single dose of radiation (40 Gy/dose) was administered to all animals on day 0. Radiation was generated with a 250 kilovolt potential (15-ma) source at a focal distance of 50 cm, hardened with a 0.35 mm Cu filtration system. Irradiation targeted the left buccal pouch mucosa at a rate of 3.2 Gy/minute. Prior to irradiation, animals were anesthetized with an intra-peritoneal injection of Ketamine (160 mg/kg) and Xylazine (8 mg/kg). The left buccal pouch was everted, fixed and isolated using a lead shield.
The mucositis score, weight change and survival were measured throughout the study as described above. For the evaluation of mucositis, the animals were anesthetized with isoflurane and the left pouch everted. […]

[1] = group 2: ip 30 mg/kg once daily day −1 to 3
[2] = group 2: ip 30 mg/kg qd day −1 to 3
[3] = group 3: ip 3 mg/kg bid day −1 to 3
[4] = group 4: ip 10 mg/kg bid day −1 to 3
[5] = group 4: ip 10 mg/kg twice daily day −1 to 3
[6] = group 5: ip 30 mg/kg bid day −1 to 3
[7] = group 5: ip 30 mg/kg twice daily day −1 to 3
[8] = group 6: ip 30 mg/kg once daily day 0 to 3
[9] = group 6: ip 30 mg/kg qd day 0 to 3
[10] = group 7: ip 30 mg/kg bid day 0 to 3
[11] = group 7: ip 30 mg/kg twice daily day 0 to 3
[12] = group 8: ip 30 mg/kg twice daily on day 0
[13] = group 9: ip 30 mg/kg bid day 0 & 7

SMILES: [Cl-].[Cl-].[Mn+2].c1cc2nc(c1)CN[C@@H]1CCCC[C@H]1NCCN[C@@H]1CCCC[C@H]1NC2 [M40403]
- Mucositis Scores (Group 8: 30 mg/kg/dose twice daily on day 0, day 6, 30 mg/kg): 0 (4×) and 1 (2×)
- Mucositis Scores (Group 8: 30 mg/kg/dose twice daily on day 0, day 8): 0
- Mucositis Scores (Group 8: 30 mg/kg/dose twice daily on day 0, day 10, 30 mg/kg): 0 (3×) and 1 (3×)
- Mucositis Scores (Group 8: 30 mg/kg/dose twice daily on day 0, day 12, 30 mg/kg): 2 (5×) and 1
- Mucositis Scores (Group 8: 30 mg/kg/dose twice daily on day 0, day 14, 30 mg/kg): 3 (4×) and 2 (2×)
- Mucositis Scores (Group 8: 30 mg/kg/dose twice daily on day 0, day 16, 30 mg/kg): 2 (4×) and 3 (2×)
- Mucositis Scores (Group 8: 30 mg/kg/dose twice daily on day 0, day 18, 30 mg/kg): 1 (3×) and 2 and 3 (2×)
- Mucositis Scores (Group 8: 30 mg/kg/dose twice daily on day 0, day 20, 30 mg/kg): 2 (2×) and 1 (2×) and 3 (2×)
- Mucositis Scores (Group 8: 30 mg/kg/dose twice daily on day 0, day 22): 2
- Mucositis Scores (Group 8: 30 mg/kg/dose twice daily on day 0, day 24, 30 mg/kg): 0 (3×) and 2 (2×) and 1
- Mucositis Scores (Group 8: 30 mg/kg/dose twice daily on day 0, day 26, 30 mg/kg): 1 (2×) and 0 (3×) and 2
- Mucositis Scores (Group 8: 30 mg/kg/dose twice daily on day 0, day 28, 30 mg/kg): 0 (3×) and 1 (3×)
- Mucositis Scores (Group 9: 30 mg/kg/dose twice daily on day 0 and on day 7, day 6, 30 mg/kg): 0 and 1
- Mucositis Scores (Group 9: 30 mg/kg/dose twice daily on day 0 and on day 7, day 8, 30 mg/kg): 0
- Mucositis Scores (Group 9: 30 mg/kg/dose twice daily on day 0 and on day 7, day 10, 30 mg/kg): 1 and 0
- Mucositis Scores (Group 9: 30 mg/kg/dose twice daily on day 0 and on day 7, day 12, 30 mg/kg): 2
- Mucositis Scores (Group 9: 30 mg/kg/dose twice daily on day 0 and on day 7, day 14, 30 mg/kg): 2
- Mucositis Scores (Group 9: 30 mg/kg/dose twice daily on day 0 and on day 7, day 16, 30 mg/kg): 3
- Mucositis Scores (Group 9: 30 mg/kg/dose twice daily on day 0 and on day 7, day 18, 30 mg/kg): 3
- Mucositis Scores (Group 9: 30 mg/kg/dose twice daily on day 0 and on day 7, day 20, 30 mg/kg): 2
- Mucositis Scores (Group 9: 30 mg/kg/dose twice daily on day 0 and on day 7, day 22, 30 mg/kg): 2 (2×) and 0
- Mucositis Scores (Group 9: 30 mg/kg/dose twice daily on day 0 and on day 7, day 24, 30 mg/kg): 0 and 1 (2×)
- Mucositis Scores (Group 9: 30 mg/kg/dose twice daily on day 0 and on day 7, day 26, 30 mg/kg): 2 and 1 (2×)
- Mucositis Scores (Group 9: 30 mg/kg/dose twice daily on day 0 and on day 7, day 28, 30 mg/kg): 1 and 2 and 0
- day of peak mean mucositis score [1]: 16 days
- peak mean mucositis score [1]: 2.8
- Chi Sq v control, days with mucositis score >=3 [2]: 4.4860
- Days <3 (animal days with a mucositis score below 3) [2]: 108
- Days >=3 (animal days with a mucositis score of three or more) [2]: 36
- % Days >=3 (percentage of animal days with a mucositis score of 3 or higher) (group 2: ip 30 mg/kg qd day −1 to 3, 30 mg/kg): 25%
- Chi Sq v control, days with mucositis score >=3 [3]: 5.3950
- Days <3 (animal days with a mucositis score below 3) [3]: 144
- Days >=3 (animal days with a mucositis score of three or more) [3]: 48
- % Days >=3 (percentage of animal days with a mucositis score of 3 or higher) (group 3: ip 3 mg/kg bid day −1 to 3, 3 mg/kg): 25%
- peak mean mucositis score (group 3: ip 3 mg/kg twice daily day −1 to 3): 2.9
- Chi Sq v control, days with mucositis score >=3 [4]: 1.1996
- Days <3 (animal days with a mucositis score below 3) [4]: 136
- Days >=3 (animal days with a mucositis score of three or more) [4]: 56
- % Days >=3 (percentage of animal days with a mucositis score of 3 or higher) (group 4: ip 10 mg/kg bid day −1 to 3, 10 mg/kg): 29.2% and 29.17%
- day of peak mean mucositis score [5]: 16 days
- peak mean mucositis score [5]: 3.0
- Chi Sq v control, days with mucositis score >=3 [6]: 7.229
- Days <3 (animal days with a mucositis score below 3) [6]: 112
- Days >=3 (animal days with a mucositis score of three or more) [6]: 32
- % Days >=3 (percentage of animal days with a mucositis score of 3 or higher) (group 5: ip 30 mg/kg bid day −1 to 3, 30 mg/kg): 22.2% and 22.22%
- day of peak mean mucositis score [7]: 16 days
- peak mean mucositis score [7]: 2.8
- Mucositis score (group 6, day 6): 1 and 0 (4×)
- Mucositis score (group 6, day 8): 0 (4×) and 1
- Mucositis score (group 6, day 10): 0 (4×) and 1
- Mucositis score (group 6, day 12): 2 (4×) and 0
- Mucositis score (group 6, day 14): 2 (3×) and 3 (2×)
- Mucositis score (group 6, day 16): 4 and 3 (4×)
- Mucositis score (group 6, day 18): 4 and 3 (2×) and 2 (2×)
- Mucositis score (group 6, day 20): 4 and 3 (2×) and 2 (2×)
- Mucositis score (group 6, day 22): 4 and 2 (2×) and 0 and 1
- Mucositis score (group 6, day 24): 4 and 2 (4×)
- Mucositis score (group 6, day 26): 3 and 2 (3×) and 1
- Mucositis score (group 6, day 28): 2 (2×) and 0 and 1 (2×)
- day of peak mean mucositis score [8]: 16 days
- peak mean mucositis score [8]: 3.2
- Chi Sq v control, days with mucositis score >=3 [9]: 1.029
- Days <3 (animal days with a mucositis score below 3) [9]: 100
- Days >=3 (animal days with a mucositis score of three or more) [9]: 44
- % Days >=3 (percentage of animal days with a mucositis score of 3 or higher) (group 6: ip 30 mg/kg qd day 0 to 3, 30 mg/kg): 30.6% and 30.56%
- Mucositis score (group 7, day 6): 0
- Mucositis score (group 7, day 8): 0 (2×) and 1
- Mucositis score (group 7, day 10): 1 and 0 (2×)
- Mucositis score (group 7, day 12): 2
- Mucositis score (group 7, day 14): 2
- Mucositis score (group 7, day 16): 1 (2×) and 2
- Mucositis score (group 7, day 18): 1 and 0 and 3
- Mucositis score (group 7, day 20): 1 (2×) and 0
- Mucositis score (group 7, day 22): 0 and 1 (2×) and 2
- Mucositis score (group 7, day 24): 1 (2×) and 0 (2×)
- Mucositis score (group 7, day 26): 1 (3×) and 0
- Mucositis score (group 7, day 28): 1 (3×) and 0
- Chi Sq v control, days with mucositis score >=3 [10]: 38.3440
- Days <3 (animal days with a mucositis score below 3) [10]: 174
- Days >=3 (animal days with a mucositis score of three or more) [10]: 18
- % Days >=3 (percentage of animal days with a mucositis score of 3 or higher) (group 7: ip 30 mg/kg bid day 0 to 3, 30 mg/kg): 9.4% and 9.38%
- day of peak mean mucositis score [11]: 16 days
- peak mean mucositis score [11]: 2.2
- Chi Sq v control, days with mucositis score >=3 (group 8: ip 30 mg/kg bid day 0): 25.681
- Days <3 (animal days with a mucositis score below 3) (group 8: ip 30 mg/kg bid day 0): 166
- Days >=3 (animal days with a mucositis score of three or more) (group 8: ip 30 mg/kg bid day 0): 26
- % Days >=3 (percentage of animal days with a mucositis score of 3 or higher) (group 8: ip 30 mg/kg bid day 0, 30 mg/kg): 13.5% and 13.54%
- day of peak mean mucositis score [12]: 14 days
- peak mean mucositis score [12]: 2.4
- Chi Sq v control, days with mucositis score >=3 [13]: 19.113
- Days <3 (animal days with a mucositis score below 3) [13]: 142
- Days >=3 (animal days with a mucositis score of three or more) [13]: 26
- % Days >=3 (percentage of animal days with a mucositis score of 3 or higher) (group 9: ip 30 mg/kg bid day 0 & 7, 30 mg/kg): 15.5% and 15.48%
- peak mean mucositis score (group 9: ip 30 mg/kg twice daily on day 0 and day 7): 2.4

Reference: patent publication US9642861B2, “Methods of treating oral mucositis” (priority 2006, dated 2017)
